Values of other authors in PubChem BioAssay AID1259409 (Chemical Carcinogenesis Research Information System (CCRIS), 2018).

System: rodent chemically induced tumor inhibition, incidence and multiplicity
Experiment: CCRIS tumor inhibitor studies
Settings: for tumour outcome (control, treated, inhibition, significance): Promoter: NONE USED; for outcome: Carcinogen: DIETHYLNITROSAMINE [55-18-5], 0.005, 0.5, 500 PPM FOR 11 OR 43 WKS BEGINNING 1 WK AFTER CARCINOGEN (STUDY DURATION: 45 WKS), Route [Inhibitor]: DIET, Dose [Carcinogen]: 100 MG/KG BW TWICE AT 1 WK INTERVALS (STUDY DURATION: 45 WKS)

**Q.** What does the source list for `NC(N)=NCCC[C@H](N)C(=O)O`?
**A.** tumour outcome (control, treated, inhibition, significance) (Carcinogen: 7,12-DIMETHYLBENZ[A]ANTHRACENE, 57-97-6, Dose [Inhibitor]: 0, 5% IN A 14% CASEIN DIET BEGINNING 2 WK PRIOR TO CARCINOGEN DOSE AND CONTINUING FOR 21 WK (STUDY DURATION: 23 WK), Route [Inhibitor]: ORAL, Species: RAT, Strain/Sex: SPRAGUE-DAWLEY/FEMALE, Target Tissue: Type of Lesion: MAMMARY GLAND: TUMOR, Dose [Carcinogen]: 7.5 MG IN 0.75 ML SESAME OIL ONCE AT 50 D OF AGE): 24/30 (80%), 22/30 (73%), 8%, not significant; tumour outcome (control, treated, inhibition, significance) (Carcinogen: 7,12-DIMETHYLBENZ[A]ANTHRACENE, 57-97-6, Dose [Inhibitor]: 5% L-ARGININE IN DIET STARTING 7 D BEFORE DMBA ADMINISTRATION (STUDY DURATION: 21 WK), Route [Inhibitor]: ORAL, Species: RAT, Strain/Sex: SPRAGUE DAWLEY/FEMALE, Target Tissue: Type of Lesion: MAMMARY GLAND: TUMOR, Dose [Carcinogen]: 15% OIL EMULSION, 25 MG/KG BW ADMINISTERED ONCE): 95%, 25%, 74%, not calculated; tumour outcome (control, treated, inhibition, significance) (Carcinogen: 7,12-DIMETHYLBENZ[A]ANTHRACENE, 57-97-6, Dose [Inhibitor]: 5% L-ARGININE IN DIET STARTING 7 D BEFORE DMBA TREATMENT FOR 3 M AND THEN CONTROL DIET (STUDY DURATION: 32 WK), Route [Inhibitor]: ORAL, Species: RAT, Strain/Sex: SPRAGUE DAWLEY/FEMALE, Target Tissue: Type of Lesion: MAMMARY GLAND: TUMOR, Dose [Carcinogen]: 15% OIL EMULSION, 25 MG/KG BW ADMINISTERED ONCE): 100%, 80%, 20%, not calculated; tumour outcome (control, treated, inhibition, significance) (Carcinogen: HYDRAZINE SULFATE, 10034-93-2, Dose [Inhibitor]: 1.1 MG/D IN DIET STARTING 1 WK PRIOR TO ADMINISTRATION OF CARCINOGEN UNTIL END OF EXPERIMENT (STUDY DURATION: APPROXIMAT, Route [Inhibitor]: ORAL, Species: MOUSE, Strain/Sex: SWISS/MALE, FEMALE, Target Tissue: Type of Lesion: LIVER AND LUNG: COMBINED TUMORS, Dose [Carcinogen]: 1.1 MG/D 5 D/WK UNTIL 12 MO OF AGE): 24/29 (83%), 11/18 (61%), 26%, not significant; tumour outcome (control, treated, inhibition, significance) (Carcinogen: ISONIAZID, 54-85-3, Dose [Inhibitor]: 1.1 MG/MOUSE/D SIMULTANEOUS WITH CARCINOGEN 6 D/WK (STUDY DURATION: 24 MO), Route [Inhibitor]: INTRAGASTRIC, Species: MOUSE, Strain/Sex: SWISS/MALE, Target Tissue: Type of Lesion: LUNG: TUMOR, Dose [Carcinogen]: 1.1 MG/MOUSE/D SIMULTANEOUS WITH INHIBITOR): 15/29 (52%), 3/10 (30%), 42%, not significant; tumour outcome (control, treated, inhibition, significance) (Carcinogen: N-METHYL-N-NITROSOUREA, 684-93-5, Dose [Inhibitor]: 0, 5% IN A 14% CASEIN DIET BEGINNING 2 WK PRIOR TO CARCINOGEN DOSE AND CONTINUING FOR 21 WK (STUDY DURATION: 23 WK), Route [Inhibitor]: ORAL, Species: RAT, Strain/Sex: SPRAGUE-DAWLEY/FEMALE, Target Tissue: Type of Lesion: MAMMARY GLAND: TUMOR, Dose [Carcinogen]: 4 MG/100 G BW ONCE AT 50 D OF AGE): 28/30 (93%), 27/30 (90%), 3%, not significant

**Q.** Which results are given for `O=S(=O)(O)c1ccc(S)cc1`?
**A.** tumour outcome (control, treated, inhibition, significance) (Carcinogen: BETA-PROPIOLACTONE, 57-57-8, Dose [Inhibitor]: 40 UMOL IN 0.2 ML WATER 5 MIN PRIOR TO EACH CARCINOGEN DOSE (STUDY DURATION: 26 WK), Route [Inhibitor]: GAVAGE, Species: MOUSE, Strain/Sex: STRAIN-A/FEMALE, Target Tissue: Type of Lesion: FORESTOMACH: PAPILLOMA, Dose [Carcinogen]: 28 UMOL IN 0.1 ML WATER 2/WK FOR 10 WK): 100%, 57%, 43%, p<0.001; tumour outcome (control, treated, inhibition, significance) (Carcinogen: BETA-PROPIOLACTONE, 57-57-8, Dose [Inhibitor]: 70 UMOL IN 0.2 ML WATER BEGINNING 5 MIN PRIOR TO EACH CARCINOGEN DOSE (STUDY DURATION: 50 WK), Route [Inhibitor]: INTRARECTAL, Species: RAT, Strain/Sex: F344/MALE, Target Tissue: Type of Lesion: LARGE INTESTINE: ADENOMATOUS POLYP, Dose [Carcinogen]: 35 UMOL IN 0.1 ML PROPYLENE GLYCOL 2/WK FOR 6 WK): 100%, 21%, 79%, p<0.001

**Q.** For `Clc1ccc(C(c2ccc(Cl)cc2)C(Cl)(Cl)Cl)cc1`, which outcome (Dose [Inhibitor]: 0, Dose [Inhibitor]: 0, Species: RAT, Strain/Sex: F344/MALE, Target Tissue: Type of Lesion: LIVER: HEPATOCELLULAR ADENOMA) is on record?
**A.** 55%; 65%, -18%; 50%, 9%; 100%, -82%

**Q.** And the outcome (Dose [Inhibitor]: 0, Dose [Inhibitor]: 0, Species: RAT, Strain/Sex: F344/MALE, Target Tissue: Type of Lesion: LIVER: HEPATOCELLULAR CARCINOMA)?
**A.** 60%; 30%, 50%; 65%, -8%; 100%, -67%

**Q.** And the “tumour outcome (control, treated, inhibition, significance)” value (Dose [Inhibitor]: 0, 7.5 MG 2/WK FOR 14 WK BEGINNING SIMULTANEOUSLY WITH CARCINOGEN TREATMENT (STUDY DURATION: 1 YR), Route [Inhibitor]: GAVAGE, Species: RAT, Strain/Sex: WISTAR/MALE, Target Tissue: Type of Lesion: LIVER: BENIGN TUMORS, Dose [Carcinogen]: 50 UG 2/WK FOR WK 1-4 OF STUDY THEN 75 UG 2/WK FOR WK 5-8)?
**A.** 22/25 (88%), 9/21 (43%), 51%, p<0.001

**Q.** What about the “tumour outcome (control, treated, inhibition, significance)” value (Dose [Inhibitor]: 0, 7.5 MG 2/WK FOR 14 WK BEGINNING SIMULTANEOUSLY WITH CARCINOGEN TREATMENT (STUDY DURATION: 1 YR), Route [Inhibitor]: GAVAGE, Species: RAT, Strain/Sex: WISTAR/MALE, Target Tissue: Type of Lesion: LIVER: CARCINOMA, Dose [Carcinogen]: 50 UG 2/WK FOR WK 1-4 OF STUDY THEN 75 UG 2/WK FOR WK 5-8) of the same molecule?
**A.** 14/25 (56%), 7/21 (33%), 41%, p<0.07
